For assay [1], the target named is T1, human sodium channels Nav 1.8 (Homo sapiens, UniProt Q9Y5Y9).
T1 construct: expressed in transfected cells
The assay is described as follows: Automated whole-cell voltage-clamp (ScreenPatch 384P) sodium current block, Nav 1.8. The class given is cell-based. Particulars: CHO cells stably expressing human Nav 1.8; inactivation step -40 mV 8 s, test step 10 mV (TP1A); eight concentrations; exposure at least five minutes; room temperature; read-out: Nav1.8 IC50. Here is the method:
(§1) Biological assays were performed on Chinese hamster ovary (CHO) cells that express human sodium channels Nav 1.8 or Nav 1.7 in a stable manner.
(§2) The experimental protocol voltage-clamp using the whole cell configuration was established on the automated ScreenPatch® 384P platform (SP384PE, Nanion Technologies, Livingston, NJ) and the results were recorded with a Nanion 384-well Patch Clamp chip (NPC) (Nanion Technologies, Livingston, NJ).
(§3) Formula I compounds were diluted in eight concentrations in the extracellular solution composed of saline solution, buffered with HEPES (mM): NaCl, 137; KCl, 4; CaCl2, 3,8; MgCl2, 1; HEPES, 10; Glucose, 10; pH 7.4. The […], 50; CsF, 90; MgCl2, 5; EGTA, 5; HEPES, 10; pH 7.2. The duration of exposure of each compound with cells expressing Nav 1.7 or Nav 1.8 was at least five minutes and the assays were performed at room temperature.
(§4) The measurements of the sodium currents of Nav 1.8 and Nav 1.7 were obtained using the voltage protocol described below.
(§5) A holding voltage of -100 mV was established followed by an inactivation voltage step at -40 mV for 8 seconds, followed by a step of -100 mV for 20 ms, followed by a 20 ms step for 10 mV for Nav 1.8 or 0 mV for Nav 1.7 (TP1A) before returning to the holding voltage of -100 mV.
(§6) The protocol was repeated at a frequency of 0.05 Hz and the amplitude of the current was quantified throughout the recording of the TP1A phase. The variation in the amplitude of the peak current was evaluated according to the formula described below, after exposing the cells expressing the channels to each concentration of the different compounds: % Block = (1−(ITP1A,molecule/ITP1A,basal)×100%, [formula] wherein ITP1A,basal and ITP1A,molecule represent the peaks of sodium current input into TP1A before exposure to the compound and in the presence of the compound, respectively.
(§7) Data were obtained by nonlinear regression (nonlinear least squares) with XLfit for Excel (Microsoft, Redmond, WA).
(§8) The compounds were tested in at least one assay to obtain the value of CI50. For compounds that were tested in two or more assays, the results are described as the means of the CI50 values.

Assay [2] has as its target T2, human sodium channels Nav 1.7 (Homo sapiens, UniProt Q15858).
T2 construct: expressed in transfected cells
The assay can be described thus: Automated whole-cell voltage-clamp (ScreenPatch 384P) sodium current block, Nav 1.7. Particulars: CHO cells stably expressing human Nav 1.7; inactivation step -40 mV 8 s, test step 0 mV (TP1A); eight concentrations; exposure at least five minutes; room temperature; read-out: Nav1.7 IC50. Format: cell-based. Here is the method:
as §1, §2, §3, §4, §5, §6, §7, §8

The structures appear in SMILES notation. A value given as a limit tells only on which side of the number the result lay.

T1 sequence (Q9Y5Y9 whole entry): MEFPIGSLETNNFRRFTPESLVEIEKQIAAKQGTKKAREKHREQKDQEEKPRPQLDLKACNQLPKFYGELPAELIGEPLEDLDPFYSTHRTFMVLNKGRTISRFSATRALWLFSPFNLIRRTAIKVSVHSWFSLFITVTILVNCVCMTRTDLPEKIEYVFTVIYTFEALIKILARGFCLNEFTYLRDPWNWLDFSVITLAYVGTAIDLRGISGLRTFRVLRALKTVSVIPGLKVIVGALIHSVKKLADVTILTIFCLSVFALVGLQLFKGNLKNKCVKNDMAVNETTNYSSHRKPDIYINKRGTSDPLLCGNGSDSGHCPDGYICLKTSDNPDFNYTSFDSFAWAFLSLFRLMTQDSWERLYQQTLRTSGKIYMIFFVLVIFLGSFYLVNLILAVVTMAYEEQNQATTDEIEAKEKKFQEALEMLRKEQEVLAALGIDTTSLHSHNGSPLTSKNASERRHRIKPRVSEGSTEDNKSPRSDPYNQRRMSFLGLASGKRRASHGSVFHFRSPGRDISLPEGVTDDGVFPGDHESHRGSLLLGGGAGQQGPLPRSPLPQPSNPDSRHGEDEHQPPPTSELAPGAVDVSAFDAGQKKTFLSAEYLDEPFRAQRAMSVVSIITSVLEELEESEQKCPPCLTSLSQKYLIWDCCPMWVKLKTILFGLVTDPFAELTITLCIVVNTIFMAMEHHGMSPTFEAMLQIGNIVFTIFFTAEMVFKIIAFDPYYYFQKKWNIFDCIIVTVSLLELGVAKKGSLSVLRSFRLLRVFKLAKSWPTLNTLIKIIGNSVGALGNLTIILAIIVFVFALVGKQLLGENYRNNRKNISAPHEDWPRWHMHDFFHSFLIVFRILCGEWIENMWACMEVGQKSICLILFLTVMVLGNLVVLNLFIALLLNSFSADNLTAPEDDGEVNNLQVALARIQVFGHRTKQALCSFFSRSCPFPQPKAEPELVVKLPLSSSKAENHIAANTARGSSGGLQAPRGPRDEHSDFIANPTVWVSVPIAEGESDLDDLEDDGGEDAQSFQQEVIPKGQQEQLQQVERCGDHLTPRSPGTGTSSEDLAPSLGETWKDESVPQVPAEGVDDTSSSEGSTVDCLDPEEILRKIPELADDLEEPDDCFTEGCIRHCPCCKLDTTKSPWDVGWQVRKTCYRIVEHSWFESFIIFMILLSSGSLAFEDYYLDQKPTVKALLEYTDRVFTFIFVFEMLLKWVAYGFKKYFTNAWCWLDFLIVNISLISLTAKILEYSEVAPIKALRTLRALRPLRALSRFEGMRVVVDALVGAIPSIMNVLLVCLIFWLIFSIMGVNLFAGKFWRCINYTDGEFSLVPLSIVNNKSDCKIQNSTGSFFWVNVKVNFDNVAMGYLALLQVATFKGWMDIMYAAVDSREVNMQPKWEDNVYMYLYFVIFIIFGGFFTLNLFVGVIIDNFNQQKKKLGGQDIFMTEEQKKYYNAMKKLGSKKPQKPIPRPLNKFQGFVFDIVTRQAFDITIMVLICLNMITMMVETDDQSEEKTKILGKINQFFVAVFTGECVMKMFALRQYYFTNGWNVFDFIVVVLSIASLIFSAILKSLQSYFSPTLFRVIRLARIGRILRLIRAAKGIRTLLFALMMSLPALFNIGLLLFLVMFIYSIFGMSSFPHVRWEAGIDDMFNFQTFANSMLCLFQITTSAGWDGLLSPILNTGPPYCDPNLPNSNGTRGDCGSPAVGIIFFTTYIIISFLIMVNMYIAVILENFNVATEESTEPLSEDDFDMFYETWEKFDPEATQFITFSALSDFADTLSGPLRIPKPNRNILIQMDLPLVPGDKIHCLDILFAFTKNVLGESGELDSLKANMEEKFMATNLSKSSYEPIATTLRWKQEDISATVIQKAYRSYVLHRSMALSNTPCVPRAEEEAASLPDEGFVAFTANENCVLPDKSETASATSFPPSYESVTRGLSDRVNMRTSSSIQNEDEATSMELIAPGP
T2 sequence (Q15858 whole entry): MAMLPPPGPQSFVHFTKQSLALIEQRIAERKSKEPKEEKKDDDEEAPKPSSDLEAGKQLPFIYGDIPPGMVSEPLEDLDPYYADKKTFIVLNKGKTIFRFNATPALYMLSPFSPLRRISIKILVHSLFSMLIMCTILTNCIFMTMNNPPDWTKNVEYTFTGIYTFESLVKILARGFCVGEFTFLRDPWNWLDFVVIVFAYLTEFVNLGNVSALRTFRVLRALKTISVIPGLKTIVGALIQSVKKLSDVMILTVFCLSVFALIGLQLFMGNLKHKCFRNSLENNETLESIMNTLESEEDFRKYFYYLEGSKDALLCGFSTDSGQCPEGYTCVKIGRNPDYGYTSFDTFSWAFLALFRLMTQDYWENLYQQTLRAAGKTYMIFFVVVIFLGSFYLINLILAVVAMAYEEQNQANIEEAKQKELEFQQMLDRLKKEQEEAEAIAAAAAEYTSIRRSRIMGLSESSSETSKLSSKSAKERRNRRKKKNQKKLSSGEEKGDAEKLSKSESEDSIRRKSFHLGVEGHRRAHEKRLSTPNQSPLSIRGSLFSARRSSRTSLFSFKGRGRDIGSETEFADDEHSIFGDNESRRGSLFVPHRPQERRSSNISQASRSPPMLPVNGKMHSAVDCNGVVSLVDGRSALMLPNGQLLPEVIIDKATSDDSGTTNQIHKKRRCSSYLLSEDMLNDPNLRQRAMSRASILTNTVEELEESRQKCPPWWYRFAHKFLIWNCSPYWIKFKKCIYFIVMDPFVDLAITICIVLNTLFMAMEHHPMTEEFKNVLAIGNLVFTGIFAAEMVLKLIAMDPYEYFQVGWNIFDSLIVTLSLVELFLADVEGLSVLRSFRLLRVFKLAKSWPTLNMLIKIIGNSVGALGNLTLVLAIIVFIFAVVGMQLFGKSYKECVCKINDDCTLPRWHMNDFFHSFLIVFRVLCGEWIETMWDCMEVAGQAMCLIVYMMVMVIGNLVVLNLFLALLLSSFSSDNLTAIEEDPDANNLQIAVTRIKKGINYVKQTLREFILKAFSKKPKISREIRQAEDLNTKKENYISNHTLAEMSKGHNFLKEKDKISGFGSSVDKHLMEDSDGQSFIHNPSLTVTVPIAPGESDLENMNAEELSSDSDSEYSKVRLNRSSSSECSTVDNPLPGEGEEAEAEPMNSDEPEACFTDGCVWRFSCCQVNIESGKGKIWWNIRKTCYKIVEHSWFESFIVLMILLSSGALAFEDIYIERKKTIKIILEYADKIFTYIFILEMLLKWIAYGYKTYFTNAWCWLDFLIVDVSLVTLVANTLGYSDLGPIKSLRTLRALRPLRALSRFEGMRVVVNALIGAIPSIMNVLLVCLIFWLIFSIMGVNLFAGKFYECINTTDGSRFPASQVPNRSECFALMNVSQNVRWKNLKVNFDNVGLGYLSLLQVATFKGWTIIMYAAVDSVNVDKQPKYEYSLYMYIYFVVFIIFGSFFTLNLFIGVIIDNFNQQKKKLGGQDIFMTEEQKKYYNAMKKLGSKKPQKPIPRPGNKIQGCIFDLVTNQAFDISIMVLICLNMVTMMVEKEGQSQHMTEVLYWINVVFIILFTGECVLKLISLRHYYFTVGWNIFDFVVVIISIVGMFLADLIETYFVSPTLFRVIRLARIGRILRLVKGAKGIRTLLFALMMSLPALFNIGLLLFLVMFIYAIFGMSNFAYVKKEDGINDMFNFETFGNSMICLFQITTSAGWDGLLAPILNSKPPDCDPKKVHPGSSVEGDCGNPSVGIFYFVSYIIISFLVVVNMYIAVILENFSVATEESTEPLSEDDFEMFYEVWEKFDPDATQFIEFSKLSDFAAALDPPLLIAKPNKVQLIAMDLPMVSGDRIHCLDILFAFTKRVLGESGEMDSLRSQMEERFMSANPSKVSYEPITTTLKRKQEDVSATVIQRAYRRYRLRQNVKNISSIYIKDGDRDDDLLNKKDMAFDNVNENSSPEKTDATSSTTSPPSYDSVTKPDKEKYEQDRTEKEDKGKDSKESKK

As to `COc1cc(/C=N/NC(=O)c2cncc(-c3ccc(OC(F)F)nc3)n2)c(F)cn1` [Compound 106, (E)-6-(6-(difluoromethoxy)pyridine-3-yl)-N'-((5-fluoro-2-methoxypyridine-4-yl)methylene)pyrazine-2-carbohydrazide], the IC50 is 500 to 1000 nM in assay [1] and above 1000 nM in assay [2].

On to `CCOc1ccc(-c2cncc(C(=O)N/N=C/c3cc(CN)ccc3F)n2)cn1` [Compound 13, (E)-N'-(5-(aminomethyl)-2-fluorobenzylidene)-6-(6-ethoxypyridine-3-yl)pyrazine-2-carbohydrazide], for which the IC50 in assay [1] and in assay [2] was above 1000 nM in each case.

For the molecule `CCOc1ccc(-c2cncc(C(=O)N/N=C/c3cc(OC)cnc3F)n2)c(OC)n1` [Compound 154, (E)-6-(6-ethoxy-2-methoxypyridine-3-yl)-N'-((2-fluoro-5-methoxypyridine-3-yl)methylene)pyrazine-2-carbohydrazide], the IC50 in assay [1] and in assay [2] was below 500 nM in each case.

With `COc1cc(/C=N/NC(=O)c2cncc(-c3ccc(OC(F)(F)F)nc3)n2)c(F)cn1` [Compound 96, (E)-N'-((5-fluoro-2-methoxypyridine-4-yl)methylene)-6-(6-(trifluoromethoxy)pyridine-3-yl)pyrazine-2-carbohydrazide], the IC50 in assay [1] is below 500 nM; in assay [2], above 1000 nM.

As to `[2H]C([2H])([2H])Oc1cnc(F)c(/C=N/NC(=O)c2cncc(-c3ccc(OC([2H])([2H])C)nc3)n2)c1` [Compound 172, (E)-6-(6-(ethoxy-1,1-d2)pyridine-3-yl)-N'-((2-fluoro-5-(methoxy-d3)pyridine-3-yl)methylene)pyrazine-2-carbohydrazide], the values for the IC50 in assay [1] and in assay [2] were below 500 nM and above 1000 nM, respectively.

With `COc1ccc(F)c(/C=N/NC(=O)c2cncc(-c3cnc4nc[nH]c4c3)n2)c1` [Compound 166, (E)-N'-(2-fluoro-5-methoxybenzylidene)-6-(1H-imidazo[4,5-b]pyridine-6-yl) pyrazine-2-carbohydrazide], the IC50 in assay [1] and in assay [2] was above 1000 nM in each case.

In the case of `CCOc1ccc(-c2cncc(C(=O)N/N=C/c3cncc(OC)c3)n2)cn1` [Compound 18, (E)-6-(6-ethoxypyridine-3-yl)-N'-((5-methoxypyridine-3-yl)methylene)pyrazine-2-carbohydrazide], the IC50 in assay [1] is below 500 nM; in assay [2] it was above 1000 nM.

Consider `COc1ccc(F)c(/C=N/NC(=O)c2cncc(-c3ccc(OCCC4CNC4)nc3)n2)c1` [Compound 141, (E)-6-(6-(2-(azetidin-3-yl)ethoxy)pyridine-3-yl)-N'-(2-fluoro-5-methoxybenzylidene)pyrazine-2-carbohydrazide], for which the half-inhibitory concentration (IC50) in assay [1] and in assay [2] was above 1000 nM each time.

Regarding `[2H]C([2H])([2H])C([2H])([2H])Oc1ccc(-c2cncc(C(=O)N/N=C/c3cc(OC)cnc3F)n2)cn1` [Compound 170, (E)-6-(6-(ethoxy-d5)pyridine-3-yl)-N'-((2-fluoro-5-methoxypyridine-3-yl)methylene) pyrazine-2-carbohydrazide], the half-inhibitory concentration (IC50) in assay [1] was below 500 nM; in assay [2], above 1000 nM.

Take `CCOc1ccc(-c2cncc(C(=O)N/N=C/c3occc3OC)n2)cn1` [Compound 55, (E)-6-(6-ethoxypyridine-3-yl)-N'-((3-methoxyfuran-2-yl)methylene)pyrazine-2-carbohydrazide]: the IC50 in assay [1] and in assay [2] was above 1000 nM in each case.

`O=C(N/N=C/c1cc(O)cnc1F)c1cncc(-c2ccc(OC(F)F)nc2)n1` [Compound 113, (E)-6-(6-(difluoromethoxy)pyridine-3-yl)-N'-((2-fluoro-5-hydroxypyridine-3-yl)methylene)pyrazine-2-carbohydrazide]: the IC50 is 500 to 1000 nM in assay [1] and above 1000 nM in assay [2].

On to `CCOc1ccc(-c2cncc(C(=O)N/N=C/c3cc(OC)c(F)cc3F)n2)cn1` [Compound 3, (E)-N'-(2,4-difluoro-5-methoxybenzylidene)-6-(6-ethoxypyridine-3-yl)pyrazine-2-carbohydrazide], for which the 50% inhibitory concentration (IC50) in assay [1] is below 500 nM; in assay [2], 500 to 1000 nM.

In the case of `CCOc1ccc(-c2cncc(C(=O)N/N=C/c3c[nH]nc3C)n2)cn1` [Compound 57, (E)-6-(6-ethoxypyridine-3-yl)-N'-((3-methyl-1H-pyrazole-4-yl)methylene)pyrazine-2-carbohydrazide], the IC50 in assay [1] and in assay [2] was above 1000 nM in each case.

With `CNS(=O)(=O)c1ccc(-c2cncc(C(=O)N/N=C/c3cc(OC)ccc3F)n2)cn1` [Compound 134, (E)-5-(6-(2-(2-fluoro-5-methoxybenzylidene)hydrazine-1-carbonyl)pyrazine-2-yl)-N-methylpyridine-2-sulfonamide], the concentration for half-maximal inhibition (IC50) in assay [1] and in assay [2] was above 1000 nM in each case.

Consider `CC(O)c1ccnc(/C=N/NC(=O)c2cncc(-c3ccc(OC(F)F)nc3)n2)c1` (centres unmarked) [Compound 114, (E)-6-(6-(difluoromethoxy)pyridine-3-yl)-N'-((4-(1-hydroxyethyl)pyridine-2-yl)methylene)pyrazine-2-carbohydrazide], for which the IC50 in assay [1] and in assay [2] was above 1000 nM each time.

With `CCOc1ccc(-c2cncc(C(=O)N/N=C/c3cc(OC)ccc3C)n2)cn1` [Compound 17, (E)-6-(6-ethoxypyridine-3-yl)-N'-(5-methoxy-2-methylbenzylidene)pyrazine-2-carbohydrazide], the half-inhibitory concentration (IC50) in assay [1] is below 500 nM; in assay [2] it was 500 to 1000 nM.

Consider `COc1ccc(F)c(/C=N/NC(=O)c2nc(-c3ccc(OC(F)(F)F)nc3)cnc2O)c1` [Compound 99, (E)-N'-(2-fluoro-5-methoxybenzylidene)-3-hydroxy-6-(6-(trifluoromethoxy)pyridine-3-yl)pyrazine-2-carbohydrazide], for which the IC50 in assay [1] and in assay [2] was above 1000 nM throughout.

On to `CCOc1ccc(-c2cccc(C(=O)N/N=C/c3cc(OC)cnc3F)n2)cn1` [Compound 71, (E) -6'-ethoxy-N'-((2-fluoro-5-methoxypyridine-3-yl)methylene)-[2,3'-bipyridine]-6-carbohydrazide], for which the half-maximal inhibitory concentration (IC50) in assay [1] is below 500 nM; in assay [2], 500 to 1000 nM.

With `CCOc1ccc(-c2cncc(C(=O)N/N=C/c3cc(OC)ccc3O)n2)cn1` [Compound 19, (E)-6-(6-ethoxypyridine-3-yl)-N'-(2-hydroxy-5-methoxybenzylidene)pyrazine-2-carbohydrazide], the results for the IC50 in assay [1] and in assay [2] were 500 to 1000 nM and above 1000 nM, respectively.

As for `COc1ccc(F)c(/C=N/NC(=O)c2cncc(-c3ccc(C#N)nc3)n2)c1` [Compound 130, (E)-6-(6-cyanopyridine-3-yl)-N'-(2-fluoro-5-methoxybenzylidene)pyrazine-2-carbohydrazide], the IC50 in assay [1] and in assay [2] was above 1000 nM in each case.

In the case of `[2H]C([2H])([2H])Oc1cnc(F)c(/C=N/NC(=O)c2cncc(-c3ccc(OCC)nc3)n2)c1` [Compound 171, (E)-6-(6-ethoxypyridine-3-yl)-N'-((2-fluoro-5-(methoxy-d3)pyridine-3-yl)methylene) pyrazine-2-carbohydrazide], the IC50 in assay [1] was below 500 nM; in assay [2], above 1000 nM.

As to `O=C(N/N=C/c1cccc(O)n1)c1cncc(-c2ccc(OC(F)F)nc2)n1` [Compound 115, (E)-6-(6-(difluoromethoxy)pyridine-3-yl)-N'-((6-hydroxypyridine-2-yl)methylene) pyrazine-2-carbohydrazide], the IC50 in assay [1] and in assay [2] was above 1000 nM throughout.

Take `COc1ccc(F)c(/C=N/NC(=O)c2cncc(-c3ccc(OC(F)(F)F)nc3)n2)n1` [Compound 97, (E)-N'-((3-fluoro-6-methoxypyridine-2-yl)methylene)-6-(6-(trifluoromethoxy)pyridine-3-yl)pyrazine-2-carbohydrazide]: the half-maximal inhibitory concentration (IC50) in assay [1] and in assay [2] was above 1000 nM each time.

As to `O=C(N/N=C/c1cccnc1)c1cncc(-c2ccc(OC(F)(F)F)nc2)n1` [Compound 86, (E)-N'-(pyridine-3-ylmethylene)-6-(6-(trifluoromethoxy)pyridine-3-yl)pyrazine-2-carbohydrazide], the half-inhibitory concentration (IC50) in assay [1] and in assay [2] was above 1000 nM each time.

`CCOc1ccc(-c2cncc(C(=O)N/N=C/c3cncn3C)n2)cn1` [Compound 58, (E)-6-(6-ethoxypyridine-3-yl)-N'-((1-methyl-1H-imidazole-5-yl)methylene)pyrazine-2-carbohydrazide]: the IC50 in assay [1] and in assay [2] was above 1000 nM each time.

The term IC50 denotes the midpoint of a concentration-inhibition curve.

These data come from patent publication EP4660182A1, “NAV1.7- AND/OR NAV1.8-INHIBITING ARYL PYRIDINE COMPOUNDS, PROCESSES FOR THE PREPARATION THEREOF, COMPOSITIONS, USES, METHODS FOR TREATMENT USING SAME, AND KITS” (Eurofarma Laboratórios S.A., priority 2023, dated 2024).
